Laboratory results published in US9029377B2, “Platelet-activating factor receptor antagonists” (Merck Sharp & Dohme Corp., priority 2009, dated 2015).
pIC50: −log10 of the molar value.

molecular target: PAFR (Homo sapiens, UniProt P25105); test: PAF Binding Assay (PAFR binding)
Sequence (P25105 whole entry): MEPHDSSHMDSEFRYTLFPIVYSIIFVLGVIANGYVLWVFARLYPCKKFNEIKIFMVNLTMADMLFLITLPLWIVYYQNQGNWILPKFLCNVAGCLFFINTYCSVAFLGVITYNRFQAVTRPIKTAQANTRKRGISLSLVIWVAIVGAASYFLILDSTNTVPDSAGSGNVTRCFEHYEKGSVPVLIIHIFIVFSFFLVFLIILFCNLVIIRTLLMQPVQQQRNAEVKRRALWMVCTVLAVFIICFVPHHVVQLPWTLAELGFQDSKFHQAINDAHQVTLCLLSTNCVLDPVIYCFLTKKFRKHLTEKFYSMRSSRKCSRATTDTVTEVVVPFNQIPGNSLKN

pIC50	Compound
9.22	Cc1nncn1[C@H]1C[C@@H](NS(=O)(=O)c2ccc(-c3ccc(OCC(F)(F)F)nc3)c(F)c2)CC(F)(F)C1 [Compound 2Hf, N-[(1R,5S)-3,3-difluoro-5-(3-methyl-4H-1,2,4-triazol-4-yl)cyclohexyl]-3-fluoro-4-[6-(2,2,2-trifluoroethoxy)pyridin-3-yl]benzenesulfonamide]
7.92	O=S(=O)(N[C@H]1CCC[C@@H](n2cnnc2)C1)c1cc(F)c(-c2ccc(OC(F)(F)F)cc2)cc1F [Compound 2Mo, 2,5-difluoro-N-[(1S,3R)-3-(4H-1,2,4-triazol-4-yl)cyclohexyl]-4′-(trifluoromethoxy)biphenyl-4-sulfonamide]
7.16	CCc1cc(-c2cscn2)ccc1S(=O)(=O)N[C@H]1CCC[C@@H](n2cnnc2)C1 [Compound 2Aay, 2-ethyl-4-(1,3-thiazol-4-yl)-N-[(1S,3R)-3-(4H-1,2,4-triazol-4-yl)cyclohexyl]benzenesulfonamide]
8.37	O=S(=O)(N[C@H]1CCC[C@@H](n2cnnc2C2CC2)C1)c1ccc(-c2noc(C3CC3)n2)cc1OC(F)(F)F [Compound 2Bb, 4-(5-cyclopropyl-1,2,4-oxadiazol-3-yl)-N-[(1S,3R)-3-(3-cycloropyl-4H-1,2,4-triazol-4-yl)cyclohexyl]-2-(trifluoromethoxy)benzenesulfonamide]
8.66	CCc1cc(-c2cc(Cl)cn3ccnc23)ccc1S(=O)(=O)N[C@H]1CCC[C@@H](n2cnnc2)C1 [Compound 2Aat, 4-(6-chloroimidazo[1,2-a]pyridin-8-yl)-2-ethyl-N-[(1S,3R)-3-(4H-1,2,4-triazol-4-yl)cyclohexyl]benzenesulfonamide]
6.43	CCc1cccc(S(=O)(=O)N[C@@H]2C[C@H](n3cnnc3)CC(F)(F)C2)c1 [Compound 2Pk, N-[(1R,5S)-3,3-difluoro-5-(4H-1,2,4-triazol-4-yl)cyclohexyl]-3-ethylbenzenesulfonamide]
8.01	CCc1cc(-c2ccn3nccc3n2)ccc1S(=O)(=O)N[C@H]1CCC[C@@H](n2cnnc2)C1 [Compound 2Aav, 2-ethyl-4-pyrazolo[1,5-a]pyrimidin-5-yl-N-[(1S,3R)-3-(4H-1,2,4-triazol-4-yl)cyclohexyl]benzenesulfonamide]
9.40	Cc1nncn1[C@H]1C[C@@H](NS(=O)(=O)c2cc(-c3cccc4cccnc34)cc(C(F)(F)F)c2)CC(F)(F)C1 [Compound 3Ca, N-[(1R,5S)-3,3-difluoro-5-(3-methyl-4H-1,2,4-triazol-4-yl)cyclohexyl]-3-quinolin-8-yl-5-(trifluoromethyl)benzenesulfonamide]
8.04	O=S(=O)(N[C@H]1CCC[C@@H](n2cnnc2)C1)c1cc(-c2ccsc2)cc(C(F)(F)F)c1 [Compound 3Aar, 3-(3-thienyl)-N-[(1S,3R)-3-(4H-1,2,4-triazol-4-yl)cyclohexyl]-5-(trifluoromethyl)benzenesulfonamide]
8.05	C=C(F)F.CCC(F)(F)c1nc(-c2ccc(S(=O)(=O)N[C@H]3CCC[C@@H](n4cnnc4)C3)c(C3CC3)c2)no1 [2 Kd, 2-cyclopropyl-4-[5-(1,1-difluoropropyl)-1,2,4-oxadiazol-3-yl]-N-[(1S,3R)-3-(4H-1,2,4-triazol-4-yl)cyclohexyl]benzenesulfonamide-1,1-difluoroethylene (1:1)]
5.97	CCc1cc(-c2cnc(N)nc2)ccc1S(=O)(=O)N[C@H]1CCC[C@@H](n2cnnc2)C1 [Compound 2Aj, 4-(2-aminopyrimidin-5-yl)-2-ethyl-N-[(1S,3R)-3-(4H-1,2,4-triazol-4-yl)cyclohexyl]benzenesulfonamide]
8.49	O=S(=O)(N[C@H]1CCC[C@@H](n2cnnc2)C1)c1cc(-c2cccnc2OCC(F)(F)F)cc(C(F)(F)F)c1 [Compound 3Aam, N-[(1S,3R)-3-(4H-1,2,4-triazol-4-yl)cyclohexyl]-3-[2-(2,2,2-trifluoroethoxy)pyridin-3-yl]-5-(trifluoromethyl)benzenesulfonamide]
7.62	CCc1cc(-c2ccc(F)c(F)c2)ccc1S(=O)(=O)N[C@H]1CCC[C@@H](n2cnnc2)C1 [Compound 2Aw, 3-ethyl-3′,4′-difluoro-N-[(1S,3R)-3-(4H-1,2,4-triazol-4-yl)cyclohexyl]biphenyl-4-sulfonamide]
7.48	CCc1cc(-c2cccc(F)c2)ccc1S(=O)(=O)N[C@H]1CCC[C@@H](n2cnnc2)C1 [2 Am, 3-ethyl-3′-fluoro-N-[(1S,3R)-3-(4H-1,2,4-triazol-4-yl)cyclohexyl]benzenesulfonamide]
8.72	Cc1nncn1[C@@H]1CCC[C@H](NS(=O)(=O)c2ccc(-c3ccc(OC(F)F)cc3)c(F)c2)C1 [Compound 2Fc, 4′-(difluoromethoxy)-2-fluoro-N-[(1S,3R)-3-(3-methyl-4H-1,2,4-triazol-4-yl)cyclohexyl]biphenyl-4-sulfonamide]
8.31	O=S(=O)(N[C@H]1CCC[C@@H](n2cnnc2)C1)c1cc(-c2ccc3ccc(OCC(F)(F)F)nc3c2)cc(C(F)(F)F)c1 [Compound 3Aag, N-[(1S,3R)-3-(4H-1,2,4-triazol-4-yl)cyclohexyl]-3-[2-(2,2,2-trifluoroethoxy)quinolin-7-yl]-5-(trifluoromethyl)benzenesulfonamide]
7.41	CCc1cc(-c2ccc(OC)c(F)c2)ccc1S(=O)(=O)N[C@H]1CCC[C@@H](n2cnnc2)C1 [Compound 2At, 3-ethyl-3′-fluoro-4′-methoxy-N-[(1S,3R)-3-(4H-1,2,4-triazol-4-yl)cyclohexyl]biphenyl-4-sulfonamide]
8.24	CCc1cc(-c2ccc(OCC(F)(F)F)nn2)cc(S(=O)(=O)N[C@H]2CCC[C@@H](n3cnnc3)C2)c1 [Compound 3Bay, 3-ethyl-N-[(1S,3R)-3-(4H-1,2,4-triazol-4-yl)cyclohexyl]-5-[6-(2,2,2-trifluoroethoxy)pyridazin-3-yl]benzenesulfonamide]

Compound	pIC50
3-(2-cyclopropylpyrazolo[1,5-a]pyrimidin-7-yl)-N-[(1R,5S)-3,3-difluoro-5-(3-methyl-4H-1,2,4-triazol-4-yl)cyclohexyl]-5-(trifluoromethyl)benzenesulfonamide [Compound 9Af]	8.29
Cc1nncn1[C@@H]1CCC[C@H](NS(=O)(=O)c2ccc(OCCCCF)c(F)c2)C1 [Compound 2Fi, 3-fluoro-4-(4-fluorobutoxy)-N-[(1S,3R)-3-(3-methyl-4H-1,2,4-triazol-4-yl)cyclohexyl]benzenesulfonamide]	8.01
CCCCOc1ccc(S(=O)(=O)N[C@H]2CCC[C@@H](n3cnnc3)C2)cc1 [Compound 2Mw, 4-butoxy-N-[(1S,3R)-3-(4H-1,2,4-triazol-4-yl)cyclohexyl]benzenesulfonamide]	8.08
CCCCOc1ccc(S(=O)(=O)N[C@H]2CCC[C@@H](n3cnnc3C3CC3)C2)cc1F [Compound 2Oaf, 4-butoxy-N-[(1S,3R)-3-(3-cyclopropyl-4H-1,2,4-triazol-4-yl)cyclohexyl]-3-fluorobenzenesulfonamide]	8.77
CCCCOc1ccc(S(=O)(=O)N[C@H]2CCC[C@@H](n3cnnc3C)C2)cc1 [Compound 2Nw, 4-butoxy-N-[(1S,3R)-3-(3-methyl-4H-1,2,4-triazol-4-yl)cyclohexyl]benzenesulfonamide]	8.55
3-isoxazol-5-yl-N-[(1R,5S)-3,3-difluoro-5-(3-methyl-4H-1,2,4-triazol-4-yl)cyclohexyl]-5-(trifluoromethyl)benzenesulfonamide [Compound 9Ad]	7.47
